Measured values: PMC12122428, “Discovery of non-covalent rhinovirus 3Cpro inhibitors by molecular docking, in vitro assays, molecular dynamics simulations and DFT analyses” (Frontiers in Pharmacology, 2025)
Where two headings read alike, the source gives them in different places.

Assays:
HRV-14 3Cpro [1] = target: T1, HRV-14 3Cpro (Human rhinovirus 14, UniProt P03303); experiment: HRV-14 3Cpro enzyme inhibition assay (Dabcyl-[…]-Edans cleavage, fluorescence); assay type: biochemical; details: for IC50: concentration-response, 50 μM to 0.617 μM, n = 5, mean ± SEM; for inhibition at 50 µM / Inhibition % HRV 3Cpro @ 50 μM: 50 μM compound, single point
T1 construct: most efficiently processed substrate by HRV-14 3Cpro (Acro, Beijing, China); purchased Acro, Beijing, China
Description: In the in vitro cleavage assay, the peptide Dabcyl-[…]-Edans was identified as the most efficiently processed substrate by HRV-14 3Cpro (Acro, Beijing, China), and was subsequently utilized in the enzyme inhibition assay. A total of 44 candidate compounds were purchased from Topscience (TargetMol, United States). Dimethyl sulfoxide (DMSO) (Innochem, Beijing, China) served as the solvent for dissolving the compounds, and all solutions were stored at −20°C. The assays were conducted using 100 μL reaction samples, which comprised 1 μL of protease, 10 μL of a 10 μM substrate solution, and varying concentrations of the tested compounds (ranging from 50 μM to 0.617 μM) in a 50 mM Tris buffer at pH 7.0. To evaluate the inhibitory effects of the compounds, the protease and each compound were preincubated at 37°C for 30 min before the addition of the substrate. The reaction mixture was subsequently incubated for 1 h at 37°C. Fluorescence measurements were performed using a multifunction enzyme label reader (SpectraMax M5, Molecular Devices), set to an excitation wavelength of 340 nm and an emission wavelength of 490 nm. […] The inhibition rate was quantified according to the following formula: Inhibition rate 100%=RFUemzyme−RFUsample/RFUemzyme−RFUcontrol×100%

HRV-14 = details: ref Binford et al., 2007; Zalman et al., 2000; read-out: antiviral activity EC50; cited from earlier work
HRV-14 3Cpro [2] = target: T1, HRV-14 3Cpro; details: cited from earlier work

T1 sequence (P03303 1538-1719): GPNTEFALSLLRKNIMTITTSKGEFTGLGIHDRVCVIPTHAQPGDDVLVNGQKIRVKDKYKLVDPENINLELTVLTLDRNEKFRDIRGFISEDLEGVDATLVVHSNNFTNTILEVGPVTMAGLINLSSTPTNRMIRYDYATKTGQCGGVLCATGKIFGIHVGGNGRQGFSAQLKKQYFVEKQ

Structure (SMILES)	IC50 (HRV-14 3Cpro [1])	inhibition at 50 µM (HRV-14 3Cpro [1])	Inhibition % HRV 3Cpro @ 50 μM (HRV-14 3Cpro [1])	EC50 (HRV-14)	pIC50 (HRV-14 3Cpro [2]; non-covalent inhibitor, ref Baxter et al., 2011)	IC50 (HRV-14 3Cpro [2]; macrocyclic covalent inhibitor, ref Kawatkar et al., 2016, Namoto et al., 2018)
CCOC(=O)/C=C/[C@H](C[C@@H]1CCNC1=O)NC(=O)[C@@H](CC(=O)[C@@H](NC(=O)c1cc(C)on1)C(C)C)Cc1ccc(F)cc1 [Rupintrivir, reference compound]	220 ± 340 nM			12 nM		
O=c1cc(-c2cccnc2)[nH]c2cc(Cc3ccccc3)ccc12 [Compound 14]					4.7	
Cc1occc1C(=O)N[C@@H]1C(=O)N[C@@H](Cc2ccc(F)cc2)C(=O)N[C@H](C=O)CCC(=O)N(C)Cc2cccc1c2 [compound 10]						8 nM

Now from value to compound, other results behind:

IC50 (HRV-14 3Cpro [1])	inhibition at 50 µM (HRV-14 3Cpro [1])	Inhibition % HRV 3Cpro @ 50 μM (HRV-14 3Cpro [1])	Structure (SMILES)	EC50 (HRV-14)	pIC50 (HRV-14 3Cpro [2]; non-covalent inhibitor, ref Baxter et al., 2011)	IC50 (HRV-14 3Cpro [2]; macrocyclic covalent inhibitor, ref Kawatkar et al., 2016, Namoto et al., 2018)
11300 ± 710 nM	96.5%		O=C(COC(=O)[C@@H](CC(=O)c1ccccc1)Nc1ccc(F)cc1)c1ccccc1 [Compound S33]			
24100 ± 550 nM	75.6%	75.5%	CCOc1ccc(NC(=O)[C@H](CC(C)C)NC(=O)[C@H]2CC[C@@H](C)CC2)cc1 [Compound S34]			
2330 ± 500 nM	88.8%	88.7%	CCC(CC)C(=O)Nc1cccc(C(=O)Nc2ccccc2C(=O)Nc2ccc(OC)cc2)c1 [Compound S43]			
30400 ± 670 nM	80.5%	80.5%	Nc1c(NC(=O)NC[C@H]2CCCO2)c(-c2ccccc2)nn1-c1ccc(C(F)(F)F)cc1 [Compound S21]			
